For 19 compounds, IC50 and Ki results are on record in US8680111B2 (Pfizer Inc., priority 2012, dated 2014).

Assay [1] concerns the target T1, WT EML4-ALK (NIH-3T3 EML4-ALK wt v1 cells) (Homo sapiens, UniProt Q9UM73).
T1 construct: expressed in transfected cells; the other entry of the earlier key: EML4 (Q9HC35, Echinoderm microtubule-associated protein-like 4)
Nature of the assay: Cellular phospho-ALK (Tyr1604) ELISA assay for WT EML4-ALK. Type of assay: cell-based. The following applies: 1 hour, read-out: ELISA assay for WT EML4-ALK (IC50). For orientation: An ELISA detects its analyte on a solid surface through an enzyme-linked reagent.
Protocol: (§1) Cellular Phospho-ALK (Tyr1604) ELISA Assay for EML4-ALK:
(§2) The cells were maintained at 37° C. in a 5% CO2 incubator in DMEM (Invitrogen, Carlsbad, Calif.) medium supplemented with 1% L-glutamine, 1% penicillin and streptomycin, 1 ug/ml puromycin and 10% new born calf serum (NCS) in T-75 flasks.
(§3) Cells were washed with PBS and re-suspended in DMEM medium supplemented with 0.5% NCS and 1% pen/strep and seeded into 96-well plates at density of 20,000 cells/well/100 μl and incubated in the incubator at 37° C. and 5% CO2. After 20 hours of incubation, 100 μl of assay media (DMEM) in presence of designated PF-compounds concentrations or controls (DMSO) were added into plates and incubated for 1 hour in the incubator. Media was then removed and lysis buffer, containing phosphatase inhibitors and phenylmethanesulfonyl fluoride (PMSF), was added to wells and shaken at 4° C. for 30 minutes to generate protein lysates.
(§4) A phospho-ALK (Tyr1604) rabbit antibody was coated onto the 96-well microplates. 50 μl of cell lysates were added to the antibody coated plate and incubated at room temperature for 2 hours. Following extensive washing with 0.1% Tween 20 in PBS to remove unbound materials, ALK mouse mAb was added to detect captured phospho-ALK (Tyr1604) and phospho-ALK fusion proteins. Anti-mouse IgG, HRP-linked antibody was then used to recognize the bound detection antibody. Finally, the chemiluminescent reagent was added and incubated for 10 minutes for signal development. The assay plates were read in the Envision plate reader in the luminescent mode. IC50 values were calculated by a concentration-response curve fitting using a four-parameter analytic method.

Assay [2] deals with T2, L1196M EML4-ALK (NIH-3T3 EML4-ALK v1 L1196M cells) (Homo sapiens, UniProt Q9UM73, L1196M).
T2 construct: expressed in transfected cells; the other entry of the earlier key: EML4 (Q9HC35, Echinoderm microtubule-associated protein-like 4)
As to the kind of experiment: Cellular phospho-ALK (Tyr1604) ELISA assay for L1196M EML4-ALK. Type of assay: cell-based. The following applies: NIH-3T3 EML4-ALK v1 L1196M cells, 1 hour, phospho-ALK (Tyr1604); read-out: ELISA assay for L1196M EML4-ALK (IC50).
Protocol: as §1, §2, §3, §4

The target of assay [3] is T3, human recombinant L1196M ALK kinase domain (amino acids 1093-1411) (Homo sapiens, UniProt Q9UM73, L1196M).
T3 construct: ALK kinase domain (amino acids 1093-1411); made in house
As to the kind of experiment: L1196M mutant ALK enzyme assay (microfluidic mobility shift). The format is biochemical. The following applies: ATP 60 μM, 0.5 nM enzyme, competitive inhibition fit; read-out: L1196M ALK enzyme assay (Ki).

In assay [4] the target is T4, human recombinant wild-type ALK kinase domain (amino acids 1093-1411) (Homo sapiens, UniProt Q9UM73).
T4 construct: ALK kinase domain (amino acids 1093-1411); made in house
As to the kind of experiment: Wild-type ALK enzyme assay (microfluidic mobility shift). Type of assay: biochemical. The following applies: ATP 60 μM, competitive inhibition fit, read-out: WT ALK enzyme assay (Ki).
Protocol: The reactions were incubated for 1 h at room temperature, stopped by the addition of 0.1 M EDTA, pH 8, and the extent of reactions (˜15-20% conversion with no inhibitor) was determined after electrophoretic separation of the fluorescently labeled peptide substrate and phosphorylated product on an LabChip EZ Reader II (Caliper Life Sciences, Hopkinton, Mass.).

Broadly, the IC50 is the point on the concentration scale where inhibition reaches its midpoint. As usually defined, the Ki is a measure of affinity in units of concentration, obtained from inhibition or displacement.

With `CC1Oc2cc(F)ccc2C(=O)N(C)Cc2nn(C)c(C#N)c2-c2cnc(N)c1c2` (single isomer, unassigned) [Example 77, 7-amino-12-fluoro-2,9,16-trimethyl-15-oxo-2,15,16,17-tetrahydro-9H-8,4-(metheno)pyrazolo[4,3-h][1,5,11]benzoxadiazacyclotetradecine-3-carbonitrile], the IC50 amounted to 3390 nM in assay [1] and 3320 nM in assay [2]. Besides, the Ki in assay [3] was found to be 45.8 nM; in assay [4], 75 nM.
For `C[C@H]1Oc2nc(cnc2N)-c2c(C#N)nn(C)c2CN(C)C(=O)c2ccc(F)cc21` [Example 115, (10R)-7-amino-12-fluoro-1,10,16-trimethyl-15-oxo-10,15,16,17-tetrahydro-1H-8,4-(azeno)pyrazolo[4,3-h][2,5,11]benzoxadiazacyclotetradecine-3-carbonitrile] the same measures were 0.96 nM, 8.18 nM, 0.09 nM and under 0.08 nM.
For `CC1c2nn(C)c(C#N)c2-c2cnc(N)c(n2)OCc2cc(F)ccc2C(=O)N1C` (stereo not shown) [Example 78, 7-amino-12-fluoro-2,16,17-trimethyl-15-oxo-10,15,16,17-tetrahydro-2H-8,4-(azeno)pyrazolo[4,3-h][2,5,11]benzoxadiazacyclotetradecine-3-carbonitrile] the same measures were 40.8 nM, 350 nM, 9.61 nM and 2.93 nM.
For `CN1Cc2nn(C)c(C#N)c2-c2cnc(N)c(n2)OCc2cc(F)ccc2C1=O` [Example 46, 7-amino-12-fluoro-2,16-dimethyl-15-oxo-10,15,16,17-tetrahydro-2H-8,4-(azeno)pyrazolo[4,3-h][2,5,11]benzoxadiazacyclotetradecine-3-carbonitrile] the same measures were 10.4 nM, 44.7 nM, 1.1 nM and 0.15 nM.
As for `COc1c2c(nn1C)CN(C)C(=O)c1ccc(F)cc1C(C)Oc1cc-2cnc1N` (single isomer, unassigned) [Example 19, 7-amino-12-fluoro-3-methoxy-2,10,16-trimethyl-16,17-dihydro-2H-8,4-(metheno)pyrazolo[4,3-h][2,5,11]benzoxadiazacyclotetradecin-15(10H)-one], the half-inhibitory concentration (IC50) in assay [1] worked out at 4.89 nM; in assay [2], 110 nM. For the same compound, the figures for the inhibition constant (Ki) in assay [3] and in assay [4] were 0.9 nM and under 0.2 nM, respectively.
For `C[C@H]1Oc2cc(cnc2N)-c2c(nn(C)c2C#N)CNC(=O)c2ccc(F)cc21` [Example 132, (10R)-7-amino-12-fluoro-2,10-dimethyl-15-oxo-10,15,16,17-tetrahydro-2H-8,4-(metheno)pyrazolo[4,3-h][2,5,11]benzoxadiazacyclotetradecine-3-carbonitrile], the figures for the IC50 in assay [1] and in assay [2] were 35.3 nM and 892 nM, respectively. Moreover, the figures for the Ki in assay [3] and in assay [4] were 16.5 nM and 3.32 nM, respectively.
On to `C[C@H]1Oc2cc(cnc2N)-c2c(nnn2C2CCC2)CN(C)C(=O)c2ccc(F)cc21` [Example 136, (10R)-7-amino-3-cyclobutyl-12-fluoro-10,16-dimethyl-16,17-dihydro-3H-8,4-(metheno)[1,2,3]triazolo[4,5-h][2,5,11]benzoxadiazacyclotetradecin-15(10H)-one], for which the IC50 in assay [1] was found to be 28.5 nM; in assay [2] it was 419 nM. In addition, the inhibition constant Ki in assay [3] was determined as 4.8 nM; in assay [4], 0.6 nM.
For “7-amino-3-tert-butyl-1,10,16-trimethyl-16,17-dihydro-1H-8,4-(metheno)-pyrazolo[4,3-g]pyrido[2,3-l][1,4,10]oxadiazacyclotetradecin-15(10H)-one [Example 120]” the same measures were 2110 nM, over 10000 nM, 821 nM and 146 nM.
As for `Cc1nn(C)c2c1-c1cnc(N)c(c1)OC(C)c1cc(F)ccc1C(=O)N(C1CC1)C2` (single isomer, unassigned) [Example 11, 7-amino-16-cyclopropyl-12-fluoro-1,3,10-trimethyl-16,17-dihydro-1H-8,4-(metheno)pyrazolo[4,3-h][2,5,11]benzoxadiazacyclotetradecin-15(10H)-one], the IC50 in assay [1] came out at 1.21 nM; in assay [2], 27.7 nM. Besides, the Ki is 1.1 nM in assay [3] and under 0.2 nM in assay [4].
For `C[C@H]1Oc2cc(cnc2N)-c2c(C#N)noc2CN(C)C(=O)c2ccc(F)cc21` [Example 117, (10R)-7-amino-12-fluoro-10,16-dimethyl-15-oxo-10,15,16,17-tetrahydro-8,4-(metheno)[1,2]oxazolo[4,5-h][2,5,11]benzoxadiazacyclotetradecine-3-carbonitrile] the same measures were 35.2 nM, 393 nM, 17.8 nM and 2.18 nM.
Consider `CN1Cc2nn(C)c(C#N)c2-c2cnc(N)c(c2)OCc2cc(F)ccc2C1=O` [Example 4, 7-amino-12-fluoro-2,16-dimethyl-15-oxo-10,15,16,17-tetrahydro-2H-8,4-(metheno)pyrazolo[4,3-h][2,5,11]benzoxadiazacyclotetradecine-3-carbonitrile], for which the half-maximal inhibitory concentration (IC50) in assay [1] was 28.1 nM; in assay [2], 184 nM. Moreover, the values for the inhibitory constant (Ki) in assay [3] and in assay [4] were 1.2 nM and under 0.2 nM, respectively.
On to `CCn1ncc2c1-c1cnc(N)c(n1)O[C@H](C)c1cc(F)ccc1C(=O)N(C)C2` [Example 49, (10R)-7-amino-3-ethyl-12-fluoro-10,16-dimethyl-16,17-dihydro-3H-8,4-(azeno)pyrazolo[3,4-h][2,5,11]benzoxadiazacyclotetradecin-15(10H)-one], for which the values for the half-inhibitory concentration (IC50) in assay [1] and in assay [2] were 4.08 nM and 80.8 nM, respectively. In addition, the figures for the Ki in assay [3] and in assay [4] were 1.5 nM and 0.17 nM, respectively.
Take `COc1nccc2c1-c1cnc(N)c(c1)O[C@H](C)c1cc(F)ccc1C(=O)N(C)C2` [Example 34, (11R)-8-amino-13-fluoro-4-methoxy-11,17-dimethyl-17,18-dihydro-9,5-(metheno)pyrido[3,4-h][2,5,11]benzoxadiazacyclotetradecin-16(11H)-one]: the IC50 in assay [1] came to 36.1 nM; in assay [2], 890 nM. The Ki in assay [3] amounted to 15 nM; in assay [4], 0.56 nM.
For the compound `C[C@H]1Oc2nc(cnc2N)-c2c(nn(C3COC3)c2C#N)CN(C)C(=O)c2ccc(F)cc21` [Example 93, (10R)-7-amino-12-fluoro-10,16-di methyl-2-(oxetan-3-yl)-15-oxo-10,15,16,17-tetrahydro-2H-8,4-(azeno) pyrazolo[4,3-h][2,5,11]benzoxadiazacyclotetradecine-3-carbonitrile], the concentration for half-maximal inhibition (IC50) in assay [1] was 3.23 nM; in assay [2], 31.7 nM. For the same compound, the inhibition constant Ki in assay [3] turned out to be 0.3 nM; in assay [4], 0.048 nM.
As for `COc1cnc2cc1-c1cnc(N)c(c1)O[C@H](C)c1cc(F)ccc1C(=O)N(C)CC2` [Example 116, (1R)-4-amino-19-fluoro-9-methoxy-1,15-dimethyl-14,15-dihydro-1H-3,7:8,12-di(metheno)-2,5,11,15-benzoxatriazacyclooctadecin-16(13H)-one], the half-inhibitory concentration (IC50) in assay [1] and in assay [2] was over 10000 nM in each case. For the same compound, the Ki in assay [3] is over 3000 nM; in assay [4], over 1500 nM.
As for `CC1Cc2cc(cnc2N)-c2c(nn(C)c2C#N)CN(C)C(=O)c2ccc(F)cc21` (single isomer, unassigned) [Example 63, 7-amino-12-fluoro-2,10,16-trimethyl-15-oxo-2,9,10,15,16,17-hexahydro-8,4-(metheno)pyrazolo[3,4-d][2,8]benzodiazacyclotetradecine-3-carbonitrile], the 50% inhibitory concentration (IC50) in assay [1] is 1.95 nM; in assay [2], 8.7 nM. Besides, the Ki amounted to 0.13 nM in assay [3] and 0.12 nM in assay [4].
For `CC1Oc2nc(cnc2N)-c2c(C#N)nn3c2C(CC3)N(C)C(=O)c2ccc(F)cc21` [Example 75, (9R)-6-amino-11-fluoro-9,15-dimethyl-14-oxo-9,14,15,15a,16,17-hexahydro-7,3-(azeno)-8-oxa-1,5,15,17a-tetraazabenzo[11,12]cyclotetradeca[1,2,3-cd]pentalene-2-carbonitrile] the same measures were 0.902 nM, 7.06 nM, 0.095 nM and 0.065 nM.
On to `COc1nn(C)c2c1-c1cnc(N)c(n1)OCc1cc(F)ccc1C(=O)N(C)C2C` (single isomer, unassigned) [Example 122, 7-amino-12-fluoro-3-methoxy-1,16,17-trimethyl-16,17-dihydro-1H-8,4-(azeno)pyrazolo[4,3-h][2,5,11]benzoxadiazacyclotetradecin-15(10H)-one], for which the IC50 in assay [1] is 9.27 nM; in assay [2], 52.3 nM. Besides, the Ki came out at 0.7 nM in assay [3] and 0.27 nM in assay [4].
In the same order, the values of `CC1Oc2nc(cnc2N)-c2c(C#N)nn3c2C(CC3)N(C)C(=O)c2ccc(F)cc21` [Example 74, (9R)-6-amino-11-fluoro-9,15-dimethyl-14-oxo-9,14,15,15a,16,17-hexahydro-7,3-(azeno)-8-oxa-1,5,15,17a-tetraazabenzo[11,12]cyclotetradeca[1,2,3-cd]pentalene-2-carbonitrile] are 11.4 nM, 51.9 nM, 0.86 nM and 0.3 nM.
